Patent US20250368687A1, “SHORT SYNTHETIC PEPTIDES AND USES THEREOF IN THE TREATMENT OF ENTEROVIRUS INFECTION” (CITY UNIVERSITY OF HONG KONG, priority 2024, published 2025)

How the values were obtained:
[1] = test system: Hsp27 phosphorylation on Ser 15, 78, 82; assay: Western blot of Hsp27 phosphorylation in EV-A71-infected RD cells; type: cell-based; conditions: for inhibition of Hsp27 Ser78 phosphorylation: peptide pre-treatment 2 hours
Procedure: RD cells were treated with SB203580 at indicated concentration for 2 hours, then infected with EV-A71 at the MOI of 10 for 6 hours. Cell lysates were collected for western blot assay. Hsp27 phosphorylation on Ser 15, 78, 82 were detected by specific antibodies. GAPDH were detected as internal control.
FIGS. 10A-10K. […] (FIG. 10A) RD cells were pre-treated with peptides S78 or for 2 hours and infected with EV-A71 at the MOI of 10 for 6 hours. Cell lysates were collected for western blot assay. Hsp27 phosphorylation on Ser 15, 78, 82 were detected by specific antibodies. β-Actin were detected as internal control. (FIG. 10B) Densitometric analysis of FIG. 9A. (FIG. 10C) HEK 293T cells were pre-treated with peptides S78 or S78A at the concentration of 25 μM for 2 hours and then co-transfected with Hsp27-WT plasmid (800 ng), pIRES reporter plasmid (200 ng) and 2A^pro-expressing plasmid or 2AC110A-expressing plasmid (200 ng) for 24 h, then the luciferase activity was measured. (FIG. 10D-10E) RD cells were treated with peptides S78 or S78A and then infected with EV-A71. EV-A71 VP1 were detected. (FIG. 10F) RD cells were treated with peptides and then infected with EV-A71 at the MOI of 1 for 12 hours. The EV-A71-induced CPE was captured. (FIG. 10G-10H) Intracellular viral RNA was extracted and quantified by qPCR. (FIG. 10I) Densitometric analysis FIG. 9D-E. (FIG. 10J) RD cells were treated with peptides S78 or and then infected with EV-A71 at the MOI of 1 for 12 hours. Extracellular viral RNA was extracted and quantified by qPCR. (FIG. 10K) Viral titration was calculated by TCID50. The Statistical analyses were carried out using Student's t-test. *: p<0.05, **: p<0.01, ***: p<0.001. Data are expressed as mean ±SD.
(§1) After cell lysis in Nonidet-P40 (NP-40) buffer, the cell lysates were centrifuged, and the concentration was determined by Bradford assay (Bio-Rad). 20 μg of protein was used for 12% SDS-PAGE and transferred onto polyvinylidene fluoride membrane (PVDF) (GE, MA, USA). Following 5% bovine serum albumin (BSA) blocking for 1 hrs, the membrane was incubated with antibodies (1:1000) against Hsp27 (sc-13132), pHsp27-Ser15 (ab76313), pHsp27-Ser78 (ADI-SPA-523), pHsp27-Ser82 (ab155987), VP1 (GTX132339), β-Actin (sc-47778), hnRNP A1 (sc-32301), or GAPDH (sc-32233) overnight in 4° C. After secondary antibodies (HRP-conjugated Affinipure Goat Anti-Mouse IgG(H+L), SA00001-1, and HRP-conjugated Affinipure Goat Anti-Rabbit IgG(H+L), SA00001-2) incubation for 1 hrs, the protein was visualized with a chemiluminescence reagent (PerkinElmer, MA, USA) on Bio-Rad Chemidoc Imaging System. The protein bands were quantified by densitometry with ImageJ if necessary.
In this example, the effect of EV-A71 infection on Hsp27 phosphorylation was investigated. […] Then, the phosphorylation status of Hsp27 upon virus infection under the treatment with a p38 inhibitor was examined, as the phosphorylation of Hsp27 could be resulted from p38 signaling activation. To this purpose, the cells were first treated with p38 kinase inhibitor −SB203580 at different concentrations (0, 0.25, 0.5, 1, 2, 4, and 8 μM) and the phosphorylation level of Hsp27 upon EV-A71 infection was examined by western blot assay.

EV-A71 VP1 = assay: Western blot of EV-A71 VP1 level in RD cells; type: cell-based; conditions: for EV-A71 VP1 protein level (in words): indicated concentrations
Procedure: FIGS. 10A-10K. Peptide S78 inhibited EV-A71 replication and propagation. (FIG. 10A) RD cells were pre-treated with peptides S78 or for 2 hours and infected with EV-A71 at the MOI of 10 for 6 hours. Cell lysates were collected for western blot assay. Hsp27 phosphorylation on Ser 15, 78, 82 were detected by specific antibodies. β-Actin were detected as internal control. (FIG. 10B) Densitometric analysis of FIG. 9A. (FIG. 10C) HEK 293T cells were pre-treated with peptides S78 or S78A at the concentration of 25 μM for 2 hours and then co-transfected with Hsp27-WT plasmid (800 ng), pIRES reporter plasmid (200 ng) and 2A^pro-expressing plasmid or 2AC110A-expressing plasmid (200 ng) for 24 h, then the luciferase activity was measured. (FIG. 10D-10E) RD cells were treated with peptides S78 or S78A and then infected with EV-A71. EV-A71 VP1 were detected. (FIG. 10F) RD cells were treated with peptides and then infected with EV-A71 at the MOI of 1 for 12 hours. The EV-A71-induced CPE was captured. (FIG. 10G-10H) Intracellular viral RNA was extracted and quantified by qPCR. (FIG. 10I) Densitometric analysis FIG. 9D-E. (FIG. 10J) RD cells were treated with peptides S78 or and then infected with EV-A71 at the MOI of 1 for 12 hours. Extracellular viral RNA was extracted and quantified by qPCR. (FIG. 10K) Viral titration was calculated by TCID50. The Statistical analyses were carried out using Student's t-test. *: p<0.05, **: p<0.01, ***: p<0.001. Data are expressed as mean ±SD.
FIGS. 11A-11G Inhibition of EV-A71 Protein Translation and Viral Reproduction by peptide S82A. (FIG. 11A) HEK 293T cells were pre-treated with peptides NC, S78, S78A, S82A, or S78-3A at the concentration of 25 μM for 2 hours and then co-transfected with Hsp27-WT plasmid (800 ng), pIRES reporter plasmid (200 ng) and 2A^pro-expressing plasmid for 24 h, then the luciferase activity was measured. (FIG. 11B) RD cells were pre-treated with peptides NC at indicated concentrations for 2 hours and infected with EV-A71 at the MOI of 1 for 9 hours. Intracellular viral RNA was extracted and quantified by qPCR. (FIG. 11C-11E) RD cells were treated with peptides NC, S82A, or S78-3A at indicated concentrations for 2 hours and then infected with EV-A71 at the MOI of 1 for 9 hours. Cell lysates were collected for western blot assay. EV-A71 VP1 were detected. β-Actin was detected as an internal control. (FIG. 11F) Densitometric analysis of the EV-A71 VP1 level in FIG. S7C-E was quantified and normalized with β-Actin using ImageJ. (FIG. 11G) RD cells were treated with peptides S78, S78A, S82A, or S78-3A at the concentration of 25 μM for 2 hours and then infected with EV-A71 at the MOI of 0.1 for 24 hours. Viral titration was calculated. The Statistical analyses were carried out using Student's t-test. *: p<0.05, **: p<0.01, ***: p<0.001. Data are expressed as mean ±SD.
as §1

[2] = SB203580 0-8 μM for 2 hours, EV-A71 MOI 10 for 6 hours, RD cells
[3] = EV-A71 MOI 10 for 6 hours, RD cells

Compound | reduction of phosphorylation level at Ser78 (densitometry) ([1]; 8 μM, EV-A71-infected RD cells) | phosphorylation level of Hsp27 at Ser15 [1, 2] | phosphorylation level of Hsp27 at Ser82 [1, 2] | phosphorylation of Hsp27 at Ser78 [1, 2] | reduction of VP1 level (densitometric assay) (EV-A71 VP1; 50 μM) | EV-A71 VP1 protein level (in words) (EV-A71 VP1) | inhibition of Hsp27 Ser78 phosphorylation [1, 3] | EV-A71 VP1 protein level at 50 μM (in words) (EV-A71 VP1; 50 μM)
C[S+]([O-])c1ccc(-c2nc(-c3ccncc3)c(-c3ccc(F)cc3)[nH]2)cc1 (stereo not drawn) [SB203580, reference compound] | over 85% | slightly decreased | slightly decreased | markedly suppressed in a dose-dependent manner | – | – | – | –
Ac-RKKRRQRRRAYSRALARQLSS-NH2 [S78A] | – | – | – | – | about 60% | much weaker | less inhibition | –
Ac-RKKRRQRRRAYSRALSRQLSS-NH2 [S78] | – | – | – | – | over 99% | dramatically decreased | dramatically inhibited | almost undetectable level
Ac-RKKRRQRRRYSREANQPKPSPKRESGEE-NH2 [NC, reference compound] | – | – | – | – | – | no effect | – | –
